From patent publication US4939134A, “26-aminocholesterol and derivatives and analogs thereof in the regulation of cholesterol accumulation in body tissue” (New York University, priority 1988, dated 1990)
Entries after “also recorded” stand apart in the source; their conditions may differ.

What was measured:
[1] = test system: Human Fibroblasts; assay: Total cell cholesterol and percent esterified cholesterol in human fibroblasts; type: cell-based; conditions: 96 h, n = 3
Description: Normal LDLR(+) human fibroblasts (GM3440) were obtained from the National Institute of General Medical Sciences Human Genetic Cell Repository. Stock fibroblast monolayers were maintained in T-75 disposable Nunc flasks, in a medium comprising 10 ml of MEM (Eagle's Minimum Essential Medium with Earl's salts, pH 7.4) supplemented with 10% (v/v) fetal bovine serum (FBS), 2% (v/v) non-essential and essential amino acids, 1% (v/v) MEM vitamins, 1% L-glutamine (292 ug/ml), 1% penicillin (100 U/ml)-streptomycin (100 ug/ml). The fibroblast stock was maintained at 37° C. in a humidified atmosphere of 5% CO2 and 95% air.
For experiments using fibroblasts, confluent stock cultures (5-18 passages) were washed once with Dulbecco's PBS (phosphate buffered saline) prior to the addition of 3 ml aliquots of experimental MEM containing 25% (v/v) D2 O, 9% (v/v) dilapidated FBS, 1% FBS (v/v), 1% MEM vitamins and L-glutamine, and 2% of essential and non-essential amino acids and 20 mM HEPES buffer.
(§1) The fibroblast and hepatoblastoma cells were cultured in media containing 25% D2 O and 1% FBS in order to determine de novo cholesterol synthesis under conditions that permit receptor mediated cholesterol transport, according to the method of Easterman & Javitt et al., J. Lipid Res., 26: 950-954 (1985). Dish cultures of each cell type were prepared, and 26-aminocholesterol, dissolved in N,N-dimethylformamide (DMF, 9 ul per dish, 0.3% v/v) was added to each culture. The cells were then grown to confluence (96 hours, day 5). […] Duplicate or triplicate dishes containing 9 ul of DMF, but without 26-aminocholesterol, were used as controls.
(§2) After 96 hours of incubation, medium was removed from the cell cultures, and the cells were washed with Dulbecco's PBS and were harvested with 0.05% trypsin - 0.02% EDTA. The protease was deactivated with an equivolume aliquot of soybean trypsin inhibitor, and the resulting cell suspension was centrifuged for 5 minutes at 500xg. An internal standard of 5B-cholestan-3B-ol was added to the pellets prior to extraction with an 8:4:3 chloroform:methanol:water Folch mixture, as described in Folch et al., J. Biol. Chem., 266: 497-509 (1957). An aliquot of the extract was blown to dryness under nitrogen and silylated with 2:1:1 MSTFA (a sylated reagent supplied by Pierce Co.): toluene:-pyridine. Free cholesterol was determined by gas-liquid chromatography (GLC) on a Perkin-Elmer capillary gas-liquid chromatography model 8320 fitted with a 20 m DE-1 methylsilicon glass column (Supelco). The remaining extract was dried and saponified with 2% ethanolic KOH at 80° C. for one hour. The […] was then re-extracted and total cholesterol was measured by GLC after silylation. Cholesterol ester was calculated as the difference between the total and free cholesterol determinations. Newly synthesized cholesterol was determined by GLC-MS isotope mass ratios, using a Hewlett-Packard GC-MS spectrometer model 5890 fitted with DB-1 methyl silicon 0.18 i.d. 20 m glass column (Supelco), according to the method of J. Lipid. Res., 26: 950-954, supra. […]

[2] = test system: DNA synthesis and cell growth; conditions: mechanism appears independent of HMG CoA reductase activity; cited from earlier work
[3] = test system: HMG CoA reductase; assay: HMG CoA reductase activity in fibroblasts; type: cell-based
[4] = test system: HepG2 Cells; assay: De novo cholesterol synthesis in HepG2 hepatocytes (D2O); type: cell-based, human; conditions: for % DE NOVO (De Novo Cholesterol Synthesis): HepG2, 96 h, n = 3, untreated 55.8; for de novo cholesterol synthesis (in words): HepG2 / human hepatocytes
From the text: HepG2 cells were obtained from Dr. Barbara Knowles of the Wistar Institute, Pennsylvania. The HepG2 stock monolayers were maintained under the same conditions as the fibroblast monolayers, in a medium comprising MEM supplemented with 10% heat-inactivated FBS, and 1% (v/v) each of penicillin-streptomycin solution, non-essential and essential amino acids, and L-glutamine.
For experiments using HepG2 cells, confluent stock monolayers were washed once with Dulbecco's PBS, dissociated with 0.05-0.02% trypsin-EDTA followed by treatment with deoxyribonuclease I (0.1%), and were seeded (3.0×10^6) under identical conditions. The experimental MEM contained 25% (v/v) D2 O, 9% (v/v) delipidated FBS, and 1% (v/v) each of heat-inactivated FBS, penicillin-streptomycin, essential and non-essential amino acids, L-glutamine and 20 mM HEPES.
as §1, §2

[5] = test system: fibroblast and hepatoblastoma cells; type: cell-based, human
Description: Lipid Res., 26: 950-954 (1985). Dish cultures of each cell type were prepared, and 26-aminocholesterol, dissolved in N,N-dimethylformamide (DMF, 9 ul per dish, 0.3% v/v) was added to each culture. The cells were then grown to confluence (96 hours, day 5). […] Duplicate or triplicate dishes containing 9 ul of DMF, but without 26-aminocholesterol, were used as controls.

For C[C@@H](CN)CCC[C@@H](C)[C@H]1CC[C@H]2[C@@H]3CC=C4C[C@@H](O)CC[C@]4(C)[C@H]3CC[C@]12C [26-NH2, 26-aminocholesterol], the “% ESTER (Percent Esterified Cholesterol)” value ([1]; 0.156 uM) was 26.4%, the “TOTAL CHOLESTEROL” value ([1]; 0.156 uM) was 27.9 +/- 5.3 ug cholesterol per mg cell pro and the “% ESTER (Percent Esterified Cholesterol)” value ([1]; 0.312 uM) was 18.6%. For the same compound, the “TOTAL CHOLESTEROL” value ([1]; 0.312 uM) was 31.5 +/- 6.1 ug cholesterol per mg cell pro, the “% ESTER (Percent Esterified Cholesterol)” value ([1]; 0.625 uM) was 6.4% and the “TOTAL CHOLESTEROL” value ([1]; 0.625 uM) was 20.3 +/- 6.4 ug cholesterol per mg cell pro. The “DNA synthesis and cell growth” value [2] was “downregulate DNA synthesis and cell growth”, the “HMG CoA reductase activity” value [3] was “inhibit HMG CoA reductase activity” and the “% DE NOVO (De Novo Cholesterol Synthesis)” value (shortened to “% DE NOVO”) ([4]; 0.156 uM) was 38.3%. For the same compound, the “% DE NOVO” value ([4]; 0.312 uM) was 45.1%, the “% DE NOVO” value ([4]; 0.625 uM) was 42.0% and the “de novo cholesterol synthesis (in words)” value [4] was “do not provide a similar reduction; also recorded: no impact”. The “effect on cell growth” value [5] was “No effect on cell growth was observed”.

In the case of CC(CO)CCC[C@@H](C)[C@H]1CC[C@H]2[C@@H]3CC=C4C[C@@H](O)CC[C@]4(C)[C@H]3CC[C@]12C (stereo partly drawn) [26-OH, 26-hydroxycholesterol], the “% ESTER (Percent Esterified Cholesterol)” value ([1]; 0.625 uM) is reported as 28.7%, the “TOTAL CHOLESTEROL” value ([1]; 0.625 uM) is reported as 24.7 +/- 2.8 ug cholesterol per mg cell pro and the “% DE NOVO” value ([4]; 0.625 uM) is reported as 57.1%. For the same compound, the “de novo cholesterol synthesis (in words)” value [4] was “do not provide a similar reduction”.

With CC(CS)CCC[C@@H](C)[C@H]1CC[C@H]2[C@@H]3CC=C4C[C@@H](O)CC[C@]4(C)[C@H]3CC[C@]12C (stereo partly drawn) [26-SH] the “% ESTER (Percent Esterified Cholesterol)” value ([1]; 5.0 uM) was 13.6%, the “TOTAL CHOLESTEROL” value ([1]; 5.0 uM) was 26.0 +/- 1.7 ug cholesterol per mg cell pro and the “% ESTER (Percent Esterified Cholesterol)” value ([1]; 10.0 uM) was 31.1%. For the same compound, the “TOTAL CHOLESTEROL” value ([1]; 10.0 uM) was 31.3 + /- 4.5 ug cholesterol per mg cell pro, the “% ESTER (Percent Esterified Cholesterol)” value ([1]; 20.0 uM) was 33.1% and the “TOTAL CHOLESTEROL” value ([1]; 20.0 uM) was 26.1 +/- 1.0 ug cholesterol per mg cell pro. For the same compound, the “% DE NOVO” value ([4]; 5.0 uM) was 49.7%, the “% DE NOVO” value ([4]; 10.0 uM) was 47.9% and the “% DE NOVO” value ([4]; 20.0 uM) was 41.9%. For the same compound, the “de novo cholesterol synthesis (in words)” value [4] was “no impact”.
